What all share (type): physicochemical
Data set [1] in a line: Crystal form stability at room temperature and during storage. As to conditions: for stability in storage: during storage (over time); for stability at room temperature compared with the other crystal form: room temperature (25° C.). The text has this: The form A crystal and the form B crystal of the present invention can be prepared with good reproducibility by using solvents safe for human bodies (e.g., pharmaceutically, pharmacologically, and/or physiologically acceptable). Therefore, it is far more useful as a pharmaceutical bulk or an active ingredient of a medicament.

Data set [2] is described as follows: Solubility in the crystallization solvent (for the supersaturability calculation). As to conditions: aqueous with cosolvent or surfactant or cyclodextrin, about room temperature, read-out: solubility under the condition of crystallization. The method, then:
The supersaturability of the form A crystals was calculated as follows: The supersaturability (calculation) is equal to the concentration of the dissolving N-(2,3-dimethyl-5,6,7,8-tetrahydrofuro[2,3-b]quinolin-4-yl)-2-(2-oxopyrrolidin-1-yl)acetamide divided by the solubility of N-(2,3-dimethyl-5,6,7,8-tetrahydrofuro[2,3-b]quinolin-4-yl)-2-(2-oxopyrrolidin-1-yl)acetamide under the condition of crystallization.
The solubility of N-(2,3-dimethyl-5,6,7,8-tetrahydrofuro[2,3-b]quinolin-4-yl)-2-(2-oxopyrrolidin-1-yl)acetamide under the condition of crystallization refers to the solubility of N-(2,3-dimethyl-5,6,7,8-tetrahydrofuro[2,3-b]quinolin-4-yl)-2-(2-oxopyrrolidin-1-yl)acetamide in the solvents used in crystallization at about room temperature.

Data set [3] is described as follows: Water solubility of saturated solutions measured by LC. The method, then:
Saturated solutions of the form A crystals and the form B crystals were prepared at room temperature (25° C.). The concentrations of N-(2,3-dimethyl-5,6,7,8-tetrahydrofuro[2,3-b]quinolin-4-yl)-2-(2-oxopyrrolidin-1-yl)acetamide in each of the saturated solutions then was measured to obtain the water solubility of the form A and form B crystals.
About 20 mg of the form A crystal was weighed and put into separate tube with screwcap, then 10 mL of water were added, and the tube was capped. The tube was ultrasonicated for 5 minutes to suspend the sample. The tube then was shaken for 3 hours in an incubator, with the shaker setting at an appropriate temperature to obtain a saturated solution. The saturated solutions were filtrated using a Chromatodisk 25A (GL Science). 5 mL of the filtrate were measured, and 5 mL of the internal standard solutions (16 mg of isopropyl p-hydroxybenzoate were weighed, and 50% methanol was added to obtain 100 mL of an internal standard solutions) were added, and then 50% methanol was added to obtain 50 mL of sample solutions. 20 mg of each crystals were weighed, and then methanol was added to obtain 50 mL solutions. 5 mL of the aforementioned solutions were measured, and then 5 mL of the internal standard solutions were added, and then 50% of methanol was added to obtain 50 mL of the standard solutions. […]

The nature of data set [4]: Conversion of form B crystal to form A crystal in stirred water suspension. As to conditions: 0.5 g in 10 mL water, stirred 24 hours, confirmed by powder X-ray diffraction. The method, then: A suspension was prepared by adding 0.5 g of form B crystals of N-(2,3-dimethyl-5 ,6,7,8-tetrahydrofuro [2,3-b]quinolin-4-yl)-2-(2-oxopyrrolidin-1-yl)acetamide to 10 mL of water. […] The powder X-ray diffraction pattern of the resulting crystals was measured to confirm that the resulting crystals were form A crystals.

Converted amounts (≈) assume the structure as drawn. “Also recorded” adds a separate entry of the source. Like-named read-outs stand apart in the source and are kept apart here.

The text below walks through data of patent US6884805B2, “Polymorph forms of N-(2,3-dimethyl-5,6,7,8-tetrahydrofuro[2,3-B]quinolin-4-YL)-2-(2-oxopyrrolidin-1-YL)acetamide” (Mitsubishi Pharma Corporation, priority 2001, dated 2005).

In the case of `Cc1oc2nc3c(c(NC(=O)CN4CCCC4=O)c2c1C)CCCC3` [form A crystal, N-(2,3-dimethyl-5,6,7,8-tetrahydrofuro[2,3-b]quinolin-4-yl)-2-(2-oxopyrrolidin-1-yl)acetamide], in data set [1], the stability in storage result is “good stability; also recorded: greater stability” and the “stability at room temperature compared with the other crystal form” value is on record as “extremely stable; also recorded: better stability”. The “stability at room temperature compared with the other crystal form” value in data set [1] (listed as form A) is on record as “more stable”.
For the molecule `Cc1oc2nc3c(c(NC(=O)CN4CCCC4=O)c2c1C)CCCC3` [N-(2,3-dimethyl-5,6,7,8-tetrahydrofuro[2,3-b]quinolin-4-yl)-2-(2-oxopyrrolidin-1-yl)acetamide], the solubility in data set [2] (10% methanol) was 0.41 mg/mL (≈ 1.2 mM); in data set [2] (60% methanol), 28.1 mg/mL (≈ 82.2 mM).
`Cc1oc2nc3c(c(NC(=O)CN4CCCC4=O)c2c1C)CCCC3` [form B crystal, N-(2,3-dimethyl-5,6,7,8-tetrahydrofuro[2,3-b]quinolin-4-yl)-2-(2-oxopyrrolidin-1-yl)acetamide]: the “solubility (in words)” value in data set [3] (summary statement) was “good solubility”. In data set [3] (water, at 25° C. and over a relatively wide temperature range (FIG. 4)), the “solubility compared with the form A crystal” value was “higher”. Also, in data set [1], the stability in storage entry is listed as “worse stability” and the “stability at room temperature compared with the other crystal form” value is “worse stability”. The “crystal form after stirring a suspension in water” value in data set [4] was “resulted in the form A crystals”.
